Source: the NIST ThermoML archive (doi:10.1016/j.jct.2017.09.020)
± gives the expanded uncertainty stated by the source.

Settings: Liquid, Ebulliometric method (Recirculating still)

vapor or sublimation pressure (389.1 K)	vapor or sublimation pressure (404.15 K)	vapor or sublimation pressure (413.57 K)	vapor or sublimation pressure (417.53 K)	vapor or sublimation pressure (433.71 K)	vapor or sublimation pressure (443.3 K)	Structure (SMILES)
2 ± 0.21 kPa	4 ± 0.42 kPa	6 ± 0.63 kPa	–	–	–	CCCCCCCCCC(=O)OC [methyl decanoate]
–	–	–	2 ± 0.21 kPa	4 ± 0.42 kPa	6 ± 0.63 kPa	CCCCCCCCCCCC(=O)OC [methyl dodecanoate]
